Experimental data reported in publication PMC12838157, “A Multikinase Inhibitor AX-0085 Blocks FGFR1 Activation to Overcomes Osimertinib Resistance in Non-Small Cell Lung Cancer” (Biomedicines, 2025).

Assays:
[1] = biological target: FGFR1 (fibroblast growth factor receptor 1) (Homo sapiens, UniProt P11362); experiment: kinase assay IC50 (called cell-based kinase assay in the Figure […] legend); also reduced phospho-FGFR1 in HCC827-osi cells
AXL = biological target: T1, AXL (Homo sapiens, UniProt P30530); experiment: kinase assay IC50 (called cell-based kinase assay in the Figure […] legend); also reduced phospho-AXL in HCC827-osi cells
T1 sequence (P30530 26-894): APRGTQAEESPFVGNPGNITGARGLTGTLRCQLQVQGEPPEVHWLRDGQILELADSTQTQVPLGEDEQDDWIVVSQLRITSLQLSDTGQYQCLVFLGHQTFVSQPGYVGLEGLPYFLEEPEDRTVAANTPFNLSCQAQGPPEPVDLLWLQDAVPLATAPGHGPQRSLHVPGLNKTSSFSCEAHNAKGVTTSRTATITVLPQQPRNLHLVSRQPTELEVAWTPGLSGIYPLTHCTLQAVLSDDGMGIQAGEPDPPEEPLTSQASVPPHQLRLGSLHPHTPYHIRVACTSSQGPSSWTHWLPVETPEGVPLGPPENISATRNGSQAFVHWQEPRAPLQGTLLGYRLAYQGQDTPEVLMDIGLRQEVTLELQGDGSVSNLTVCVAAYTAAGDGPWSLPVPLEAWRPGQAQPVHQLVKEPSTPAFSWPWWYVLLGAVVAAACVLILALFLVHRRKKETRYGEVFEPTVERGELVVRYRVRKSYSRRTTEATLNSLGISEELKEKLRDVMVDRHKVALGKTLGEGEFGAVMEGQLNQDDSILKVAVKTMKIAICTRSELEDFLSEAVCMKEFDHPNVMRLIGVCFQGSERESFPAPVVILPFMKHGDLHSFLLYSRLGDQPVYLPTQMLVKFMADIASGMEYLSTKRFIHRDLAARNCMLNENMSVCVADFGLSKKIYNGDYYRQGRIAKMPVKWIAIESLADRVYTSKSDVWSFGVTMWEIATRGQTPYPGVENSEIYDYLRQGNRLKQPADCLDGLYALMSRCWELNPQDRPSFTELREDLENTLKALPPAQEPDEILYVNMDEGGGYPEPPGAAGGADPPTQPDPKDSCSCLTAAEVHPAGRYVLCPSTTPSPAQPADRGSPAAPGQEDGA

FGFR1 (fibroblast growth factor receptor 1), sequence (P11362 22-822): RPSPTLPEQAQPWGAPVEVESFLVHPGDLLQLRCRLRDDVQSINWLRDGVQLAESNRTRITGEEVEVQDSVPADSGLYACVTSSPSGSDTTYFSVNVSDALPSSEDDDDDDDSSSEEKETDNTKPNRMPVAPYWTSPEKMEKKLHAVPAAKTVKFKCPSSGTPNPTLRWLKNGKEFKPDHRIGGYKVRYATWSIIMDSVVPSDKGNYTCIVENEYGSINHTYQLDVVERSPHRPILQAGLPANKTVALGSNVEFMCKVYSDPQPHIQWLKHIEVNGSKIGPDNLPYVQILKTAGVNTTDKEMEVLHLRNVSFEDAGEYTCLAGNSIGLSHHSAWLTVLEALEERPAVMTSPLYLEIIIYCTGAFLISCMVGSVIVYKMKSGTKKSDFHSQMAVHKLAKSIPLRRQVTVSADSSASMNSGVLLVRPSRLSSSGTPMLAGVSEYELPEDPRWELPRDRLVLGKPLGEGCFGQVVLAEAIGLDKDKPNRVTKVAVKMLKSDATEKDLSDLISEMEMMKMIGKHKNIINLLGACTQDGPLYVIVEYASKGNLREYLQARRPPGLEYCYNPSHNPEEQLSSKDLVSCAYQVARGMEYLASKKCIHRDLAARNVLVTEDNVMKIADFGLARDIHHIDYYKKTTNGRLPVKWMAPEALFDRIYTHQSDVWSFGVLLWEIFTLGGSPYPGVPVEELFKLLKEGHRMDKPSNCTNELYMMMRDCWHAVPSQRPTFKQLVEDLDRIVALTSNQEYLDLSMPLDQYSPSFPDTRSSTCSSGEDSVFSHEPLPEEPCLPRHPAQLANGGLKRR

IC50 [1]: 2.2 nM
IC50 (AXL): 4.4 nM
Structure (SMILES): CN1C(=O)N(c2cc(NC(=O)c3cccc(C(F)(F)F)c3)cnc2Cl)Cc2cnc(Nc3ccccc3)nc21 [AX-0085]
